Laboratory results: US20150258192A1, “COMPOSITIONS AND METHODS FOR PREVENTING OR TREATING CHRONIC LUNG ALLOGRAFT DYSFUNCTION (CLAD) AND IDIOPATHIC PULMONARY FIBROSIS (IPF)” (priority 2014, published 2015)
No end group written: not given here.

Legend:
[1] = system: bleomycin-induced lung fibrosis in C57BL/6 mice; test: Bleomycin mouse model of pulmonary fibrosis (IPF treatment model); assay type: in vivo; details: for lung architecture and collagen distribution (H&E, Masson's trichrome), day 28: daily day 14-28 post bleomycin
Procedure: A mouse model of pulmonary fibrosis was generated by administering 0.025 U of bleomycin/PBS intratracheally to C57BL/6 mice. […] At 21 day post bleomycin delivery (for prevention model) or 28 post bleomycin delivery (for treatment model), groups of mice were sacrificed with a sodium pentobarbital injection (120 mg/kg) and the chest cavity was opened. The right mainstem bronchus was ligated and the right lung was removed. The trachea was cannulated and the left lung was perfused with 4% formaldehyde at 21 cm H2O pressure. The tissue blocks then were embedded in paraffin, and […] sections were prepared for staining. Sections from each animal were stained with hematoxylin and eosin (H&E) to visualize cells or with Masson's Trichrome staining to highlight collagen deposition. […] Stained sections were mounted onto a labeled glass slide with organic mounting medium.
The classic bleomycin model, as depicted in FIG. 10, has been used widely in the literature in the pre-fibrotic stage to test efficacy of any intervention.
More specifically, fibrotic loci in the lungs were induced by delivering intratracheally about 0.025 U of bleomycin (dissolved in PBS) to C57BL/6 mice. […] Mice were sacrificed with a sodium pentobarbital injection (120 mg/kg) and the chest cavity was opened. The right mainstem bronchus was ligated and the right lung is removed. The trachea was cannulated and the left lung was perfused with 4% formaldehyde at 21 cm H2O pressure. The tissue blocks then were embedded in paraffin, and […] sections were prepared, and stained with hematoxylin and eosin (H&E; for pathological examination) or Masson's Trichrome (for collagen staining)
Next, collagen deposition was determined quantitatively by using the standard hydroxyproline assay with whole left lung. Total collagen (soluble and insoluble) deposition was assessed by analyzing hydroxyproline concentrations in murine lungs day 28 post bleomycin injury.

[2] = system: fibroblasts from bleomycin treated mouse lung; test: Matrigel invasion assay, mouse lung fibroblasts; assay type: cell-based; details: fibroblasts from WT or ASMA-HAS2 mice; 8 μm
Procedure: Fibroblasts are critical effector cells in mediating tissue remodeling. […] We have developed a novel model of progressive lung fibrosis based on a cancer metastasis model. […] We hypothesized that fibrotic fibroblasts acquire an invasive phenotype that is essential for progressive fibrogenesis and that CD44 has a critical role in regulating the process. We utilized an assay system in which fibroblasts are evaluated for their ability to spontaneously invade Matrigel, a composite matrix with basement membrane constituents. This assay has been used to analyze the metastatic potential of cancer cells (40).
To determine the role of CD44 in fibroblast invasion we examined the invasive capacity of fibroblasts isolated from CD44 null mice after bleomycin treatment and found impaired invasive capacity (not shown). Similar results were found from fibroblasts isolated from ASMA-HAS2+/CD44−/− mice (FIG. 37 A). Furthermore, treating fibroblasts isolated from bleomycin-challenged wild type C57B1/6J mice with anti-CD44 Abs blunted fibroblast invasion (FIG. 37 B).

## YARAAARQARAKALARQLGVAA [MMI-0100]
[1]; 50 μg/kg/day IP or nebulizer from day 14
  progression of collagen deposition (hydroxyproline assay, whole left lung), day 28: significantly arrested further progression
[1]; intraperitoneally
  lung architecture and collagen distribution (H&E, Masson's trichrome), day 28: rescued
[1]; locally applied to the lung (nebulized)
  lung architecture and collagen distribution (H&E, Masson's trichrome), day 28: rescued
[2]
  fibroblast invasion: significantly reduced
